We go through 28 compounds from publication PMC11589570, “Critical assessment of LC3/GABARAP ligands used for degrader development and ligandability of LC3/GABARAP binding pockets” (Nature Communications, 2024).

Several values for one entry are separate records, joined by “and”; a condition that tells them apart may be missing. Identical values can stand only once.

The test system of assay [1] is RPE1 cells. Nature of the assay: Cell growth assay (IncuCyte confluence over 72 h). In kind it is cell-based. How it is done:
Cell growth assay: Cell confluence (phase) from RPE1 (hTERT RPE-1, ATCC CLR_4000) or U2OS (ATCC, HTB-96) cell lines were monitored over time with the IncuCyte S3 (Sartiorius, Germany) in 384-well plates in 50 ul DMEM media, supplemented with 10% Fetal Bovine Serum (FBS) 1% penicillin/Streptomycin and incubated 24 h before treatment. Experiment was performed as described in Cano-Franco et al.. 50 μl of media containing either 2× final concentration of indicated compounds in or control compounds (final conc.: 0.1% DMSO, 250 nM Torin1, 200 ng/mL Bafilomycin) were added and images were taken every two hours over 72 h. Cell confluence is represented as % of area covered by cells. Each data point represents the average ratio or confluence obtained from three individual wells of the plate.

Assay [2] concerns U2OS cells. The assay is described as follows: Cell growth assay (IncuCyte confluence over 72 h). Type of assay: cell-based. Also noted: key to U2OS cell growth: % of well area covered by cells (confluence). The protocol: Cell growth assay: Cell confluence (phase) from RPE1 (hTERT RPE-1, ATCC CLR_4000) or U2OS (ATCC, HTB-96) cell lines were monitored over time with the IncuCyte S3 (Sartiorius, Germany) in 384-well plates in 50 ul DMEM media, supplemented with 10% Fetal Bovine Serum (FBS) 1% penicillin/Streptomycin and incubated 24 h before treatment. Experiment was performed as described in Cano-Franco et al.. […] Cell confluence is represented as % of area covered by cells. Each data point represents the average ratio or confluence obtained from three individual wells of the plate.

Assay [3] addresses LC3A (Homo sapiens, UniProt Q9H492). The assay is described as follows: FP assay with Cy5-labelled p62 LIR tracer (protein titration and tracer displacement). In kind it is binding. The note with it: LC3A tracer displacement, normalized on p62-LIR positive control.

`O=C1CC(c2ccc(Cl)c(Cl)c2)CC(=O)C1=CNCCN1CCNCC1` (centres unmarked) [Cov-3]: the RPE1 cell growth was 12 and 21 and 11 in assay [1] (100 nM, 0 h); 14 and 25 and 13 in assay [1] (100 nM, 2 h); 19 and 28 and 14 in assay [1] (100 nM, 6 h); 20 and 32 and 17 in assay [1] (100 nM, 12 h); 15 and 23 and 13 in assay [1] (500 nM, 0 h); 16 and 27 and 14 in assay [1] (500 nM, 2 h). For the same compound, the RPE1 cell growth in assay [1] (500 nM, 6 h) was 20 and 32 and 17; in assay [1] (500 nM, 10 h) it was 21 and 34 and 17; in assay [1] (500 nM, 12 h), 23 and 35 and 18; in assay [1] (1 uM, 0 h), 13 and 24; in assay [1] (1 uM, 8 h) it was 16 and 20 and 31; in assay [1] (1 uM, 10 h), 17 and 18 and 32. For the same compound, the RPE1 cell growth in assay [1] (1 uM, 12 h) was 18 and 19 and 34; in assay [1] (3 uM, 0 h), 16 and 20 and 13; in assay [1] (3 uM, 2 h), 21 and 23 and 14; in assay [1] (3 uM, 4 h), 23 and 26 and 14; in assay [1] (3 uM, 6 h), 24 and 27 and 16; in assay [1] (3 uM, 8 h), 24 and 29 and 17. For the same compound, the RPE1 cell growth in assay [1] (3 uM, 10 h) is 23 and 29 and 18; in assay [1] (3 uM, 12 h), 26 and 31 and 20; in assay [1] (5 uM, 0 h) it was 16 and 20 and 13; in assay [1] (5 uM, 2 h), 20 and 24 and 15; in assay [1] (5 uM, 4 h), 22 and 26 and 15; in assay [1] (5 uM, 6 h), 23 and 28 and 18. Also, the RPE1 cell growth in assay [1] (5 uM, 8 h) was 24 and 30 and 18; in assay [1] (5 uM, 10 h), 22 and 29 and 19; in assay [1] (5 uM, 12 h), 23 and 32 and 20; in assay [1] (10 uM, 0 h), 16 and 20 and 13; in assay [1] (10 uM, 2 h), 19 and 23 and 17; in assay [1] (10 uM, 4 h), 22 and 25 and 18. Also, the RPE1 cell growth was 22 and 29 and 20 in assay [1] (10 uM, 6 h); 24 and 31 and 21 in assay [1] (10 uM, 8 h); 23 and 30 in assay [1] (10 uM, 10 h); 26 and 32 and 23 in assay [1] (10 uM, 12 h). The U2OS cell growth in assay [2] (100 nM, time 10 h) was 33.6743 and 37.4722 and 28.8223; in assay [2] (100 nM, time 0 h), 14.5416 and 22.9345 and 12.3076; in assay [2] (100 nM, time 2 h), 20.4728 and 24.9456 and 18.1328; in assay [2] (100 nM, time 4 h), 32.466 and 35.1005 and 23.9495; in assay [2] (100 nM, time 6 h), 27.7123 and 37.9082 and 23.0201; in assay [2] (100 nM, time 8 h), 36.178 and 29.1087 and 28.1634. The U2OS cell growth in assay [2] (500 nM, time 0 h) is 19.4597 and 15.6761 and 23.7515; in assay [2] (500 nM, time 2 h), 17.2401 and 19.2948 and 26.8842; in assay [2] (500 nM, time 4 h), 23.0548 and 20.6729 and 33.4847; in assay [2] (500 nM, time 6 h), 31.9275 and 22.0748 and 27.2708; in assay [2] (500 nM, time 8 h), 20.0458 and 23.4357 and 28.1267; in assay [2] (1 uM, time 10 h) it was 29.6152. The U2OS cell growth in assay [2] (1 uM, time 0 h) is 18.8183 and 26.6645 and 23.9984; in assay [2] (1 uM, time 2 h) it was 21.0614 and 26.8371 and 29.3905; in assay [2] (1 uM, time 4 h), 24.6352 and 31.1306 and 32.3496; in assay [2] (1 uM, time 6 h) it was 26.5224 and 36.4121 and 30.4909; in assay [2] (1 uM, time 8 h), 20.3314 and 37.2236 and 29.7059; in assay [2] (3 uM, time 0 h), 36.1248 and 21.9705 and 35.4647. For the same compound, the U2OS cell growth in assay [2] (3 uM, time 2 h) is 38.4423 and 25.3153 and 30.1014; in assay [2] (3 uM, time 4 h) it was 41.4594 and 31.6601 and 38.4044; in assay [2] (3 uM, time 6 h), 35.1153 and 23.5308 and 36.0085; in assay [2] (3 uM, time 8 h), 37.1896 and 25.2973 and 34.3262; in assay [2] (5 uM, time 10 h), 45.8479 and 32.8378 and 36.0561; in assay [2] (5 uM, time 0 h) it was 35.0072 and 29.5152 and 28.3077. Besides, the U2OS cell growth in assay [2] (5 uM, time 2 h) is 34.3656 and 30.4257 and 30.1228; in assay [2] (5 uM, time 4 h) it was 36.9905 and 31.4377 and 28.9247; in assay [2] (5 uM, time 6 h), 42.578 and 38.6163 and 31.6899; in assay [2] (5 uM, time 8 h) it was 38.0361 and 32.4495 and 27.1279; in assay [2] (10 uM, time 10 h), 36.2219 and 24.7441 and 23.9347; in assay [2] (10 uM, time 0 h), 31.5761 and 18.5024 and 22.4964. For the same compound, the U2OS cell growth in assay [2] (10 uM, time 2 h) was 30.3213 and 20.7145 and 20.7242; in assay [2] (10 uM, time 4 h), 34.613 and 22.1736 and 25.1322; in assay [2] (10 uM, time 6 h), 35.028 and 21.2307 and 23.3926; in assay [2] (10 uM, time 8 h) it was 32.1571 and 22.7698 and 18.9042.
Take `CCCCCCC(Sc1nc(Cl)cc(Nc2nc(-c3ccc(Cl)cc3)cs2)n1)C(=O)O` (centres unmarked) [TH018]: the “% tracer bound @LC3A” value in assay [3] is given as 81%.
For `CCCCCCC(Sc1nc(Cl)cc(Nc2nc(-c3ccccc3)cs2)n1)C(=O)O` (centres unmarked) [TH020], in assay [3], the “% tracer bound @LC3A” value is on record as 84%.
Same read-out and setting: as for `CCCCCCC(Sc1nc(Cl)cc(Nc2nc(-c3ccc(Br)cc3)cs2)n1)C(=O)O` (centres unmarked) [TH026], the figure is 79%.
Consider `CCCCCCC(Sc1nc(Cl)cc(Nc2nc(-c3ccc4ccccc4c3)cs2)n1)C(=O)O` (centres unmarked) [TH034], for which, in assay [3], the “% tracer bound @LC3A” value is listed as 79%.
Same read-out and setting: as for `CCC(Sc1nc(Cl)cc(Nc2nc(-c3ccc(Cl)cc3)cs2)n1)C(=O)O` (centres unmarked) [TH035], the figure is 85%.
On the same count and under the same terms, as for `CCCCCCC(Sc1nc(Cl)cc(Nc2nc(-c3ccc(F)c(F)c3)cs2)n1)C(=O)O` (centres unmarked) [TH044], the figure is 76%.
On to `CCCCCCC(Sc1nc(Cl)cc(Nc2nc(-c3ccc(F)cc3F)cs2)n1)C(=O)O` (centres unmarked) [TH054], for which the “% tracer bound @LC3A” value in assay [3] turned out to be 75%.
As to `CCCCCCC(Sc1nc(Cl)cc(Nc2nc(-c3ccc([N+](=O)[O-])cc3)cs2)n1)C(=O)O` (centres unmarked) [TH056], the “% tracer bound @LC3A” value in assay [3] was 61%.
Take `CCCCCCC(Sc1nc(Cl)cc(Nc2nc(-c3ccc(Br)cc3)c(C)s2)n1)C(=O)O` (centres unmarked) [TH057]: the “% tracer bound @LC3A” value in assay [3] worked out at 94%.
Same read-out and setting: the same measure for `COc1ccc(CN(Cc2cccc(C#N)c2)S(=O)(=O)c2ccc(C(=O)O)cc2)cc1` [TH061]: 83%; for `CCCCCCC(Sc1nc(Cl)cc(Nc2nc3c(s2)CCc2cc(OC)ccc2-3)n1)C(=O)O` (centres unmarked) [TH062]: 76%; for `CCCCCCC(Sc1nc(Cl)cc(Nc2nc(-c3ccc(Cl)c(Cl)c3)cs2)n1)C(=O)O` (centres unmarked) [TH083]: 84%.
Consider `CCCCCCC(Sc1nc(Cl)cc(Nc2nc(-c3ccc(C(F)(F)F)cc3)cs2)n1)C(=O)O` (centres unmarked) [TH084], for which, in assay [3], the “% tracer bound @LC3A” value is recorded as 76%.
On the same count and under the same terms, the same measure for `CCCCCCC(Sc1nc(Cl)cc(Nc2nc(-c3ccccc3)c(CC)s2)n1)C(=O)O` (centres unmarked) [TH100]: 77%; for `CCCCCCC(Sc1nc(Cl)cc(Nc2nc(-c3ccc(Cl)cc3Cl)cs2)n1)C(=O)O` (centres unmarked) [TH102]: 78%.
On the same count and under the same terms, the same measure for `CCCCCCC(Sc1nc(Cl)cc(Nc2nc(-c3ccc(-c4ccccc4)cc3)cs2)n1)C(=O)O` (centres unmarked) [TH104]: 82%; for `CCCCCCC(Sc1nc(Cl)cc(Nc2nc(C34CC5CC(CC(C5)C3)C4)cs2)n1)C(=O)O` (centres unmarked) [TH105]: 84%; for `CCC(Sc1nc(Cl)cc(Nc2nc(-c3ccc4ccccc4c3)cs2)n1)C(=O)O` (centres unmarked) [TH107]: 82%.
Same read-out and setting: as for `COc1ccc(CN(CC2CCCCC2)S(=O)(=O)c2ccc(C(=O)O)cc2)cc1` [TH119], the figure is 92%; as for `CCCCCCC(Sc1nc(Cl)cc(Nc2nc(-c3ccc(OC)cc3)cs2)n1)C(=O)O` (centres unmarked) [TH121], 83%; as for `O=C(O)c1ccc(S(=O)(=O)N(Cc2ccc(Oc3ccccc3)cc2)CC2CCCCC2)cc1` [TH133], 82%.
As for `CCCCCCC(Sc1nc2ccc(NC(=O)c3ccc(C(C)(C)C)cc3)cc2s1)C(=O)O` (centres unmarked) [TH177], the “% tracer bound @LC3A” value in assay [3] is reported as 85%.
Consider `CCCCCCC(Sc1nc2ccc(NC(=O)c3ccc(-c4ccccc4)cc3)cc2s1)C(=O)O` (centres unmarked) [TH181], for which the “% tracer bound @LC3A” value in assay [3] came to 78%.
For `CCCCCCC(Sc1nc2ccc(NCc3ccc(C(C)(C)C)cc3)cc2s1)C(=O)O` (centres unmarked) [TH185], in assay [3], the “% tracer bound @LC3A” value is recorded as 82%.
Same read-out and setting: as for `CCCCC(Sc1nc2ccc(NC(=O)c3ccc(C(C)(C)C)cc3)cc2s1)C(=O)O` (centres unmarked) [TH188], the figure is 89%; as for `CCCCCCC(Sc1nc2ccc(NCc3ccc4ccccc4c3)cc2s1)C(=O)O` (centres unmarked) [TH191], 78%; as for `CCCCCCC(Sc1nc2ccc(NCc3ccccc3)cc2s1)C(=O)O` (centres unmarked) [TH195], 78%.
